Measured values taken from patent publication US6469127B1, “Polycarbonate resin having low tendency of releasing environmental endocrine disruptors” (Space Environmental Technology Company, Inc,, priority 1999, dated 2002).

Biological target: T1, Estrogen Receptor (Homo sapiens, UniProt P03372)
T1 sequence (P03372 1-595): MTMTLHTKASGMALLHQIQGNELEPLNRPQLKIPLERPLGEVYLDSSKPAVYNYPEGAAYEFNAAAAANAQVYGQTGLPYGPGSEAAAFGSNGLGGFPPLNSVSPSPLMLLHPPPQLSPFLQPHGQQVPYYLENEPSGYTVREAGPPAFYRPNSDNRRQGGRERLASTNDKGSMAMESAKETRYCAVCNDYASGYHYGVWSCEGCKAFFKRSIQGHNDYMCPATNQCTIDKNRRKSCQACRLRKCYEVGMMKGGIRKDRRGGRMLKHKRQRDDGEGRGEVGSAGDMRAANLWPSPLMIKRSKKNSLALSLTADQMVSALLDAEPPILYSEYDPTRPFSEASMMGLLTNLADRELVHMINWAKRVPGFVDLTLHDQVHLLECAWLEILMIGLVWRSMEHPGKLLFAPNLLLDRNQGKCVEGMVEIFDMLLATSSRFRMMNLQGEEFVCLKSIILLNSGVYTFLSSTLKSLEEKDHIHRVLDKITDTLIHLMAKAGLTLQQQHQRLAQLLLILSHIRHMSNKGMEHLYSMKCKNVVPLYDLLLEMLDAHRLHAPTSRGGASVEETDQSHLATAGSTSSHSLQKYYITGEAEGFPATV
Test: Tendency to link to estrogen receptor (IC50 of bisphenols and reference compounds, Table 1)
Assay type: binding
Details: concentration required to substitute 50% of genuine hormone linked to receptor

**Q.** With CCCCCCCCCc1ccc(O)cc1 [4-Nonylphenol] as the molecule, how does the IC50 read?
**A.** 3.9 µM
